Among the data in patent US10307427B2, “Apoptosis signal-regulating kinase inhibitors” (Gilead Sciences, Inc., priority 2012, dated 2019) are EC50 values, retold here.

The assay has as its system CXCL1 in human whole blood. The assay is described as follows: Human whole blood CXCL1 assay (Auranofin stimulation). In kind it is cell-based. The conditions noted are these: 5 μM Auranofin, 24 hours, CXCL1 quantified, average of donors, read-out: WB EC50 nM (n = 4). The method, then: Human Whole Blood CXCL1 Assay
Human blood collected in sodium heparin glass vacutainer tubes (BD Biosciences #366480) was obtained from Stanford Blood Center (Palo Alto, Ca). Red blood cell Ammonium-Chloride-Potassium (ACK) lysis buffer was obtained from Invitrogen (A10492-01) Phosphate buffered saline (PBS, 21-031-CV) and RPMI640 media (10-040-CV) were purchased from Cellgro. 50 ml conical tubes were from BD Biosciences (352070). Multiscreen Filter plates (MSBVS 1210) used along with vacuum manifold for 96-well plate (MAVM0960R) were purchased from EMD Millipore Inc. Transfer pipettes (13-711-20) and hemocytometer (0267110) were purchased from Thermo Fisher Scientific. An Allegra X15R from Beckmann Coulter was used for all the centrifugation steps in the isolation of PBMCs.
ASK1 inhibitors and Auranofin (Enzo Life Sciences Inc. BML-EI206-0100) were dissolved in dimethyl sulfoxide (DMSO, Sigma Aldrich cat#472301) at a concentration of 10 mM and 100 mM, respectively. […] CXCL1 protein was quantified with an ELISA assay from Millipore.
A 10 mM ASK1 inhibitor DMSO stock was diluted in saline to create a 100 μM (10×) working solution. […] 50 μl of the resulting supernatant from each well was transferred to a new 96 well assay plate and the amount of CXCL1 was quantified by a Procarta immunoassay following the manufacturer's instructions. […]

By EC50 is commonly meant the concentration that produces a half-maximal response. `C[C@H](n1cnnc1-c1nc(NC(=O)c2cc(-n3cnc(C4CC4)c3)c(N3CCOCC3)cn2)cs1)C(F)(F)F` [Example 3, (S)-4-(4-cyclopropyl-1H-imidazol-1-yl)-5-morpholino-N-(2-(4-(1,1,1-trifluoropropan-2-yl)-4H-1,2,4-triazol-3-yl)thiazol-4-yl)picolinamide]: the EC50 came out at 202 nM.
On to `O=C(Nc1csc(-c2nncn2C2CC2)n1)c1cc(-n2cnc(C3CC3)c2)c(N2CCOCC2)cn1` [Example 1, 4-(4-cyclopropyl-1H-imidazol-1-yl)-N-(2-(4-cyclopropyl-4H-1,2,4-triazol-3-yl)thiazol-4-yl)-5-morpholinopicolinamide], for which the EC50 was found to be 243 nM.
